Results reported in article PMC11306511, “Combining VPS34 inhibitors with STING agonists enhances type I interferon signaling and anti‐tumor efficacy” (Molecular Oncology, 2024).
Converted amounts (≈) assume the structure as drawn. Where two headings read alike, the source gives them in different places.

What was measured:
[1] = molecular target: CYP3A4 (Homo sapiens, UniProt P08684); test: CYP inhibition; assay type: in vitro ADME; conditions: human; 10 μM; 3A4; read-out: Highest CYP inhibition (%) @ 10 μM
Protocol: (§1) Experiments were conducted at Aragen Life Sciences Ltd. (Hyderabad, India) according to internal standard procedures.

[2] = molecular target: T1, VPS34 (Homo sapiens, UniProt Q8NEB9); test: cell-based
Protocol: (§2) Compound dilution series was prepared in DMSO and further diluted to 4× final assay concentration in assay buffer (Buffer Q #PV5125, Thermo Fisher, supplemented with 2 mM DTT and 2 mM MnCl2). 2.5 μL of the diluted compounds were added to a 384‐well assay plate followed by 2.5 μL of 16.5 nM VPS34 enzyme (#PV5126; Thermo Fisher) and incubated for 15 min. Five microliters of substrate mix (20 μM ATP #PV3227 and 200 μM PI : PS substrate #PV5122; Thermo Fisher) in assay buffer was added, mixed, and incubated for 1 h. Five microliters of stop‐detection mix (Adapta kinase assay #PV5099; Thermo Fisher) were added, mixed, and incubated for 30 min and read with Artemis microplate reader. Percent remaining activity as compared to DMSO‐treated control samples was calculated and IC50 values were generated using […] PRISM (GraphPad Software, Inc., San Diego, CA, USA). The NanoBRET assay was performed using the manufacturer's protocol. Briefly, 293T cells were transfected with the Kinase‐NanoLuc® Fusion Vector DNA overnight. The next day cells were treated with compound and the NanoBRET tracer reagent and then read out measuring donor and acceptor emission wavelength (450 and 610 nm).

[3] = Solubility (PBS, FaSSIF, SGF); assay type: physicochemical
Protocol: as §1

[4] = system: VPS34 activity; test: PD: GFP-2xFYVE puncta in H1299 tumors (immunohistochemistry); assay type: in vivo, mouse; conditions: 9 or 29 mg·kg^−1 oral
Protocol: The study was performed by Truly Translational AB (Lund, Sweden) following Swedish legislations and approved by the ethical committee Malmö/Lunds djurförsöksetiska nämnd (M120‐15). Animals were housed 5/cage in polysulfone IVC cages at a constant temperature with 12 h light‐dark cycles and free access to food, tap water, and cage enrichment. Animals were allowed to acclimatize to the housing conditions for at least a week before the start of experiments. Female 8‐week‐old NOD.Cg‐Prkdc^ scid Il2rg^ tm1Sug /JicTac (CIEA‐NOG®) mice (supplied by Taconic Biosciences, Rensselaer, NY, USA; n = 42) were implanted subcutaneously with 1.75 × 10^6 H1299‐GFP2xFYVE cells in serum‐free RPMI in 50% Matrigel. When tumors reached 300–400 mm^3 mice were randomized and dosed with 9 or 29 mg·kg^−1 SB02024 or vehicle (PEG 200 (98%)/Polysorbate (2%)). At indicated time points after dosing, blood samples were taken by heart puncture and tumors were removed. Pharmacokinetic (PK) analysis (plasma and tumor samples) was performed by Q&Q Labs (Gothenburg, Sweden). Plasma was precipitated with acetonitrile, and after centrifugation, the soluble material was recovered. […] SB02024 levels were determined using UHPLC‐QQQ: Agilent 6460 (LC–MS/MS; Agilent Technologies, Santa Clara, CA, USA). […] Each TMA block was sectioned and analyzed at eight equally spaced levels. […]

[5] = molecular target: T1, VPS34; test: biochemical
Protocol: as §2

[6] = molecular target: T2, PXR (Homo sapiens, UniProt O75469); test: CYP3A4 induction, PXR; assay type: in vitro ADME
T2 sequence (O75469 1-434): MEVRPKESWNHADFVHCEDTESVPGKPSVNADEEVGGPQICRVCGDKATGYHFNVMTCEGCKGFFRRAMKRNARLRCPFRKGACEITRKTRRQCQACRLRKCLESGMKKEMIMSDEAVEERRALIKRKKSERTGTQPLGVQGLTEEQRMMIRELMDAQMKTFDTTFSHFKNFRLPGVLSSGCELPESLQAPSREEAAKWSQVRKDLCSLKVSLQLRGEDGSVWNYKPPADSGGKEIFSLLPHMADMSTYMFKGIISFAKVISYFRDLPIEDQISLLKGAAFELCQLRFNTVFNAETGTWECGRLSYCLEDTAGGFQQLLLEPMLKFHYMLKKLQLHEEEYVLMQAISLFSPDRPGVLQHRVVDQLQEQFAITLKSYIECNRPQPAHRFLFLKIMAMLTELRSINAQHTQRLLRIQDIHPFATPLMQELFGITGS
Protocol: as §1

[7] = In vivo mouse PK
Protocol: as §1

[8] = Plasma protein binding, mouse; assay type: in vitro ADME; conditions: unbound/free fraction, read-out: PPB (% unbound) mouse
Protocol: as §1

[9] = system: CCL5 and CXCL10; test: Plasma CCL5/CXCL10 in Renca tumor-bearing mice (Mesoscale Discovery); assay type: in vivo, mouse; conditions: Renca tumor-bearing BALB/c mice, 20 mg·kg^−1 oral daily, vs vehicle
Excerpt: Study protocols were approved by the Institutional Animal Care and Use Committee of CrownBio in China (AN‐1903‐05‐313) or the LIH's animal welfare committee in Luxembourg (agreement LECR‐2018‐12). Mice were handled according to European Union guidelines, adhering to the principles of replacement, reduction, and refinement (3Rs). Animals were housed in appropriate accommodations conducive to their well‐being, with provisions for housing, feeding, and environmental enrichment to meet their physical and behavioral needs. Highly skilled personnel were involved in carrying out procedures related to the animal experiments to ensure proper care and handling. […] Tumor growth was measured using a caliper every other day and estimated as follows: volume (cm^3) = (width)^2 × length × 0.5.
Cell culture medium was centrifuged at 300 g for 10 min at 4 °C and supernatant stored at −80 °C. […] Cytokine levels were quantified using Mesoscale Discovery (MSD) assays: human CCL5 (#F21ZN), CXCL10 (#K151UFK), IFNβ (#K151VIK); mouse CCL5 (#K152A2K) and CXCL10 (#K152UFK). Low concentrations of human IFNβ were determined using High‐Sensitivity IFNβ ELISA (#41415‐1; PBL Assay Science, Piscataway, NJ, USA). CCL5/CXCL10 levels in some experiments were quantified using R&D Systems (Minneapolis, MN, USA) ELISAs: human CCL5 (#DY278) or CXCL10 (#DY266); mouse CCL5 (#DY478).

T1 sequence (Q8NEB9 whole entry): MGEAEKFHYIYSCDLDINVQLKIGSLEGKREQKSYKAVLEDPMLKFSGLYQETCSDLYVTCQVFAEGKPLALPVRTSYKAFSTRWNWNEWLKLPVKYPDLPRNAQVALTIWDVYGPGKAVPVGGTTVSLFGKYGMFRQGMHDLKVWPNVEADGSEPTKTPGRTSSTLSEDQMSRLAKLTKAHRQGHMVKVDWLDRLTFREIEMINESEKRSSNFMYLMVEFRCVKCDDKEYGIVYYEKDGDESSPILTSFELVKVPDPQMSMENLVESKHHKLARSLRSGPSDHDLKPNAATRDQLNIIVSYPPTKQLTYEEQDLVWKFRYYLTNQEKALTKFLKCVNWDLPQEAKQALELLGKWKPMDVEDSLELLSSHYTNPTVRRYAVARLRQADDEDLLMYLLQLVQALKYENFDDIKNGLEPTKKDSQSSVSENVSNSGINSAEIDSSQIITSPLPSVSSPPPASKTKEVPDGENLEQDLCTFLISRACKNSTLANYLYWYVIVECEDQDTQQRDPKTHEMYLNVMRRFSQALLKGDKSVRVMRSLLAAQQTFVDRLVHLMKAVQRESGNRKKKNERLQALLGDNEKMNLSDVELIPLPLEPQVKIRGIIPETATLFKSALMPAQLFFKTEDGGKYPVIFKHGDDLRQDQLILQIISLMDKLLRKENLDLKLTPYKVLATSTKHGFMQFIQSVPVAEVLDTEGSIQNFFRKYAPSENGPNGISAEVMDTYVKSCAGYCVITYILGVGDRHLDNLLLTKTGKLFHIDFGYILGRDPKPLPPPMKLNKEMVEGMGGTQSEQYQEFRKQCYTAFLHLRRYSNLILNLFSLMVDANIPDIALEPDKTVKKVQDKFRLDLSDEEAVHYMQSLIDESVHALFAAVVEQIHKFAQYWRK
Chain of CYP3A4 (P08684 whole entry): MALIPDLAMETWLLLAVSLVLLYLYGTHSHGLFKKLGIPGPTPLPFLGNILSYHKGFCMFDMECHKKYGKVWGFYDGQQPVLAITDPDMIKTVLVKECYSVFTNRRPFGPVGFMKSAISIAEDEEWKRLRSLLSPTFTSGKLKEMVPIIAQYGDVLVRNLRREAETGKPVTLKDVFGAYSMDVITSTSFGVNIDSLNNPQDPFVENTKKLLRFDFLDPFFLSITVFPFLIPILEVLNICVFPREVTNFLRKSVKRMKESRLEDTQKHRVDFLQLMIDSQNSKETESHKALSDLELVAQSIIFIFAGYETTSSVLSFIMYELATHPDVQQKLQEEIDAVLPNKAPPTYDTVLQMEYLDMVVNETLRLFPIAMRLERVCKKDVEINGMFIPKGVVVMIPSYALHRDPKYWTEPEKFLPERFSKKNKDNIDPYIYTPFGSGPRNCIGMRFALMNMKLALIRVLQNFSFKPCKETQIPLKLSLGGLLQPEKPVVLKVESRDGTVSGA

inhibition at 10 µM [1]: 14%
IC50 [2]: 5.7 nM
solubility in both gastric and small intestinal pH media (in words) [3]: excellent
solubility ([3]; FaSSIF, pH 6.5, fassif, read-out: Solubility FaSSIF, pH 6.5): 890 µM (≈ 307 µg/mL)
solubility ([3]; PBS buffer, pH 7.4, aqueous buffer, read-out: Solubility in PBS buffer, pH 7.4): 175 µM (≈ 60.4 µg/mL)
solubility ([3]; SGF, pH 1.8, simulated gastric fluid, read-out: Solubility SGF, pH 1.8): 2150 µM (≈ 743 µg/mL)
IC50 [5]: 5 nM
induction of CYP3A4 (in words) [6]: no induction
Vd ([7]; in vivo mouse PK): 2.53 L/kg
clearance ([7]; in vivo mouse PK): 26 mL/min/kg
half-life ([7]; in vivo mouse PK, read-out: t½ (converted)): 1.15 h
in vitro and in vivo clearance (in words) ([7]; mouse, in vivo): low
bioavailability ([7]; po, in vivo mouse PK): 96%
fraction unbound [8]: 0.14
Compound: C[C@@H]1COCCN1c1cc(N2CCCC[C@@H]2C(F)(F)F)[nH]c(=O)c1 [SB02024]
duration of inhibition of GFP-2xFYVE puncta formation [4]: about 8 h
GFP-2xFYVE puncta (autophagosome and endosome) formation in H1299 tumors ([4]; after 2 h): inhibited
CCL5 and CXCL10 in blood plasma [9]: significant increase
